Experiment [1] deals with experimentally hyperemiated skin. The experiment is described as follows: Vasoconstriction test. The conditions noted are these: concentration 0.1%, visual estimate, hyperemiated non-treated skin = 0, non-hyperemiated skin = 100; for Vasoconstriction, colour value, 4 hrs.: after 4 hours; for Vasoconstriction, colour value, 8 hrs.: after 8 hours. Type of experiment: in vivo. How it is done:
J. Derm. 69, 11 (1957)]. In this test, the degree of the vasoconstriction in relation to the time was estimated visually (after 4 and 8 hours). The colour value of the hyperemiated non-treated skin was rated as 0 and the colour value of the non-hyperemiated skin was rated as 100. The D-homosteroids were used in concentration of 0.1%.

The test system of experiment [2] is granulomas (felt pellets implanted under the skin). The experiment is described as follows: Felt pellet test (granulation weight reduction). It counts as in vivo, rats (female). The conditions noted are these: Rattus norvegicus, 120 h; 40% reduction of the granulation weight; oral on 4 successive days. How it is done: (§1) 2 felt pellets were implanted under the skin (scapula region) in female rats (90-110 g) under ether narcosis. The D-homosteroids were administered orally on 4 successive days commencing on the day of the implantation. On the fifth day the rats were killed, the granulomas which formed were removed, dried and weighed. The ED40, namely that dosage which gave a 40% reduction of the granulation weight, was determined. The thymus and kidney fresh weight as well as the weight-change were also determined.

In experiment [3] the test system is thymus weight. As to the kind of experiment: Thymolysis test (thymus weight reduction). Type of experiment: in vivo, rats (female). The conditions noted are these: Rattus norvegicus, 120 h; 50% reduction in the thymus weight; rats of the Felt pellet test; oral on 4 successive days. Here is the method: as §1
Rats employed in the Felt pellet test were used for this test. The ED50, namely that dosage which gave a 50% reduction in the thymus weight, was determined.

Experiment [4] has as its system hind paw oedema (Mycobacterium butyricum). The experiment is described as follows: Adjuvant-paw oedema test. It counts as in vivo, Lewis rats (female). The conditions noted are these: in Rattus norvegicus, 50% oedema inhibition, given immediately before and 24 hours after, paw diameter at 48 hours. How it is done: This test was carried out on female Lewis rats weighing 130-150 g. The oedema was caused by the subplantar injection of Mycobacterium butyricum in the right hind paw (0.5 mg of M. butyricum/0.1 ml of liquid paraffin). The D-homosteroids (suspended in 0.5% tragacanth/0.9% sodium chloride) were administered immediately before and 24 hours after the establishment of the oedema. The paw diameter was measured before and 48 hours after the establishment of the oedema. The ED50, namely the dosage which brings about a 50% oedema inhibition, was determined by means of a graph.

In the case of `COC(=O)[C@@]1(OC(C)=O)CCC[C@H]2[C@@H]3CCC4=CC(=O)C=C[C@]4(C)[C@@]3(F)[C@@H](O)C[C@@]21C` [17aα-acetoxy-9α-fluoro-11β-hydroxy-3-oxo-D-homoandrosta-1,4-diene-17aβ-carboxylic acid methyl ester], in experiment [1], the “Vasoconstriction, colour value, 4 hrs.” value is on record as 63. Moreover, the “Vasoconstriction, colour value, 8 hrs.” value in experiment [1] is given as 77. The same compound showed an ED40 in experiment [2] of 9 mg/kg. Besides, the results for the ED50 in experiment [3] and in experiment [4] were 0.9 mg/kg and 1.3 mg/kg, respectively.

As for `COC(=O)[C@@]1(OC(C)=O)CCC[C@H]2[C@@H]3CCC4=CC(=O)CC[C@]4(C)[C@H]3[C@@H](O)C[C@@]21C` [17aα-acetoxy-11β-hydroxy-3-oxo-D-homoandrost-4-ene-17aβ-carboxylic acid methyl ester], in experiment [1], the “Vasoconstriction, colour value, 4 hrs.” value is 72 and the “Vasoconstriction, colour value, 8 hrs.” value was 70.

As for `COC(=O)[C@@]1(OC(C)=O)CCC[C@H]2[C@@H]3CCC4=CC(=O)C=C[C@]4(C)[C@H]3[C@@H](O)C[C@@]21C` [17aα-acetoxy-11β-hydroxy-3-oxo-D-homoandrosta-1,4-diene-17aβ-carboxylic acid methyl ester], the “Vasoconstriction, colour value, 4 hrs.” value in experiment [1] is reported as 70. Also, the “Vasoconstriction, colour value, 8 hrs.” value in experiment [1] is given as 77. Also, the ED40 in experiment [2] was determined as 3 mg/kg. The ED50 in experiment [3] was determined as 0.65 mg/kg; in experiment [4] it was 3.5 mg/kg.

Source of the values: US4029692A, “Steroid carboxylic acids and derivatives” (priority 1975, dated 1977).
